Assay results published in patent US9453040B2, “Glycodendrimers of polypropyletherimine” (priority 2010, dated 2016).

System: pro-inflammatory cytokines such as IL-6, IL-8, IL-1 beta, TNF-alpha and MIP-1 beta
Assay: Effect of unconjugated components on pro-inflammatory cytokines
Format: cell-based
Conditions: even at high doses

## N[C@H]1C(O)O[C@H](CO)[C@@H](O)[C@@H]1O (stereo partly shown) [glucosamine]
  effect on pro-inflammatory cytokines such as IL-6, IL-8, IL-1 beta, TNF-alpha and MIP-1 beta: no effect
